Read-outs that look alike come from different tables or passages of the source.
Legend:
[1] = tested on: Root-knot nematode, Meloidogyne incognita J2 larvae; conditions: potted tomato, scored 4 weeks following inoculation
Excerpt: Soil Nematicide Assay Targeting Root-knot Nematode, Meloidogyne Incognita on Potted Tomato
The test compound is solubilized in acetone and diluted with water to the required test concentration. Silty loam soil in a 3 inch pot with a 3-week-old tomato transplant is drenched with the test solution. Four thousand root-knot nematode Meloidogyne incognita J2 larvae are dispensed in a aqueous suspension onto the soil. The pots are kept in the greenhouse and 4 weeks following inoculation of the pots, plant roots are washed free of soil and scored for the degree of root galling using the root-knot galling index identified below.

[2] = tested on: M. incognita (Root Knot Nematode) larvae; experiment: Evaluation of test compounds against M. incognita larvae in microtiter plate wells (movement score); assay type: in vivo; conditions: larvae scored for movement after 20-24 hours; note: key: A score of '9' indicates inactive worms with a straight, sticklike morphology; A score of '8' indicates inactive worms with a limp, curled or curved morphology; A score of '7' indicates dead/paralyzed worms after 72 hours
Method in brief: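 Newly emerged M. incognita larvae in S Medium (buffered salt solution), 50-65 worms per well, exposed to test compounds in sealed microtiter wells. Movement scored after 20-24 h incubation; wells with obviously dead/paralyzed larvae scored positive. A score of "7" denotes dead/paralyzed worms after […].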

[3] = tested on: Diabrotica undecimpunctata howardi, eggs-southern corn rootworm (SCR-Eggs); experiment: Southern corn rootworm eggs (SCR-Eggs) treated diet test; assay type: in vivo; set-up: key: 0 = no effect; 1 = 10-25% kill; 2 = 26-35% kill; 3 = 36-45% kill; 4 = 46-55% kill; 5 = 56-65% kill; 6 = 66-75% kill; 7 = 76-85% kill; 8 = 86-99% kill; 9 = 100% kill; conditions: mortality after 7 days
Method in brief: (§1)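 Compounds dissolved at 10,000 ppm in 35% acetone/water, diluted with water, applied to artificial diet in wells and dried. Southern corn rootworm or southern armyworm eggs placed on treated diet under vented covers; mortality counted after 7 days.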

[4] = tested on: C. elegans (Bristol strain); experiment: Evaluation of test compounds against C. elegans (motility, 96-well plate); assay type: in vivo; set-up: key: 9=complete kill in 4 hours; 8=complete kill in 24 hours; 7=markedly reduced motility in approximately 95% of worms in 24 hours; 0=normal motility, same as controls; conditions: motility at 4 and 24 hours
Method in brief: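 Bristol-strain C. elegans in Na buffer added to wells containing dried compound (applied in 80% acetone) and incubated at 20 °C. Motility of adults and larvae scored subjectively but semi-quantitatively under a dissecting microscope at 4 and 24 h after immersion, plates tapped before reading.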

[5] = tested on: Spodoptera eridania, eggs-southern armyworm (SAW-Eggs); experiment: Southern armyworm eggs (SAW-Eggs) treated diet test; assay type: in vivo; set-up: key: 0 = no effect; 1 = 10-25% kill; 2 = 26-35% kill; 3 = 36-45% kill; 4 = 46-55% kill; 5 = 56-65% kill; 6 = 66-75% kill; 7 = 76-85% kill; 8 = 86-99% kill; 9 = 100% kill; conditions: mortality after 7 days
Method in brief: as §1

[6] = tested on: Aphis gossypii, cotton aphid (CA); experiment: Cotton aphid (CA) cotyledon dip test; assay type: in vivo; set-up: key: 0 = no effect; 1 = 10-25% kill; 2 = 26-35% kill; 3 = 36-45% kill; 4 = 46-55% kill; 5 = 56-65% kill; 6 = 66-75% kill; 7 = 76-85% kill; 8 = 86-99% kill; 9 = 100% kill; conditions: mortality after 5 days
Method in brief: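 Cotyledon-stage cotton plants infested overnight via a heavily infested leaf, then dipped in test solution (compound in 35% acetone/water, diluted with water) and dried. Mortality counted after 5 days.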

[7] = tested on: Tetranychus urticae (OP-resistant strain), 2-spotted spider mite (TSM); experiment: 2-spotted spider mite (TSM) plant dip test; assay type: in vivo; set-up: key: 0 = no effect; 1 = 10-25% kill; 2 = 26-35% kill; 3 = 36-45% kill; 4 = 46-55% kill; 5 = 56-65% kill; 6 = 66-75% kill; 7 = 76-85% kill; 8 = 86-99% kill; 9 = 100% kill; conditions: mortality after 2 days
Method in brief: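 OP-resistant mites (~100 per leaf) were transferred onto Sieva lima bean primary leaves about 2 h before treatment. Infested plants were dipped for 3 s in compound from a 10,000 ppm stock in 35% acetone/water, diluted with water. Mortality was counted after 2 days.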

[8] = tested on: Spodoptera eridania, 2nd instar larvae, southern armyworm (SAW); experiment: Southern armyworm (SAW) leaf dip test; assay type: in vivo; set-up: key: 0 = no effect; 1 = 10-25% kill; 2 = 26-35% kill; 3 = 36-45% kill; 4 = 46-55% kill; 5 = 56-65% kill; 6 = 66-75% kill; 7 = 76-85% kill; 8 = 86-99% kill; 9 = 100% kill
Method in brief: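 Compound is dissolved at 10,000 ppm in 35% acetone/water, then diluted with water. Lima bean leaves are dipped for 3 seconds, dried and placed with ten 2nd instar larvae on damp filter paper. Mortality, reduced feeding and molting interference are scored at 5 days.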

[9] = tested on: Diabrotica virgifera virgifera Leconte, 2nd instar western corn rootworm (WCR); experiment: Western corn rootworm (WCR) soil test; assay type: in vivo; set-up: key: 0 = no effect; 1 = 10-25% kill; 2 = 26-35% kill; 3 = 36-45% kill; 4 = 46-55% kill; 5 = 56-65% kill; 6 = 66-75% kill; 7 = 76-85% kill; 8 = 86-99% kill; 9 = 100% kill
Method in brief: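 Compound in 35% acetone/water applied to talc at 1.25 mg active ingredient per jar (about 50 kg/ha), solvent evaporated, then mixed with millet seed and moist soil. Ten 2nd-instar larvae per jar; mortality counted after 5 days, missing larvae scored dead.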

With `O=C(O)CSC(C[N+](=O)[O-])c1ccccc1` (stereo not drawn) [Example 1, {[alpha-(nitromethyl)benzyl]thio}-acetic acid] the “Galling Index” value ([1]; Rate 10 ppm soil drench) was 1 (10), the “Galling Index” value ([1]; Rate 25 ppm soil drench) was 0 (0) and the “Galling Index” value ([1]; Rate 50 ppm soil drench) was 0 (0). The “M. incognita (150 ppm) score” value [2] was 9, the “SCR Eggs (1000 ppm) rating” value [3] was 0 and the “Rating Against C. elegans (150 ppm)” value [4] was 9. The “SAW Eggs (300 ppm) rating” value [5] was 0.

With `O=C(CSC(C[N+](=O)[O-])c1cccnc1)OCc1ccccc1` (centres unmarked) [Example 174] the “M. incognita (150 ppm) score” value [2] was 9, the “CA (300 ppm) rating” value [6] was 0 and the “TSM (300 ppm) rating” value [7] was 0. For the same molecule, the “SAW (300 ppm) rating” value [8] was 0, the “SCR Eggs (1000 ppm) rating” value [3] was 0 and the “WCR (50 ppm) rating” value [9] was 0. For the same molecule, the “Rating Against C. elegans (150 ppm)” value [4] was 0 and the “SAW Eggs (300 ppm) rating” value [5] was 0.

For `CCCSC(C[N+](=O)[O-])c1cccnc1` (centres unmarked) [Example 175], the “M. incognita (150 ppm) score” value [2] was 9, the “CA (300 ppm) rating” value [6] was 0 and the “TSM (300 ppm) rating” value [7] was 0. For the same molecule, the “SAW (300 ppm) rating” value [8] was 0, the “SCR Eggs (1000 ppm) rating” value [3] was 0 and the “WCR (50 ppm) rating” value [9] was 0. The “Rating Against C. elegans (150 ppm)” value [4] was 0 and the “SAW Eggs (300 ppm) rating” value [5] was 0.

In the case of `C=CCSC(C[N+](=O)[O-])c1cccnc1` (centres unmarked) [Example 176], the “M. incognita (150 ppm) score” value [2] was 9, the “CA (300 ppm) rating” value [6] was 0 and the “TSM (300 ppm) rating” value [7] was 0. For the same molecule, the “SAW (300 ppm) rating” value [8] was 0, the “SCR Eggs (1000 ppm) rating” value [3] was 0 and the “WCR (50 ppm) rating” value [9] was 0. For the same molecule, the “Rating Against C. elegans (150 ppm)” value [4] was 0 and the “SAW Eggs (300 ppm) rating” value [5] was 0.

`O=[N+]([O-])CC(SCc1ccccc1)c1cccnc1` (centres unmarked) [Example 177] was tested, and the “M. incognita (150 ppm) score” value [2] was 9, the “CA (300 ppm) rating” value [6] was 0 and the “TSM (300 ppm) rating” value [7] was 0. The “SAW (300 ppm) rating” value [8] was 0, the “SCR Eggs (1000 ppm) rating” value [3] was 0 and the “WCR (50 ppm) rating” value [9] was 0. The “Rating Against C. elegans (150 ppm)” value [4] was 0 and the “SAW Eggs (300 ppm) rating” value [5] was 0.

With `CCCOC(=O)CSC(C[N+](=O)[O-])c1cccnc1` (centres unmarked) [Example 178] the “M. incognita (150 ppm) score” value [2] was 9, the “CA (300 ppm) rating” value [6] was 0 and the “TSM (300 ppm) rating” value [7] was 0. For the same molecule, the “SAW (300 ppm) rating” value [8] was 0, the “SCR Eggs (1000 ppm) rating” value [3] was 0 and the “WCR (50 ppm) rating” value [9] was 0. The “Rating Against C. elegans (150 ppm)” value [4] was 0 and the “SAW Eggs (300 ppm) rating” value [5] was 0.

Source: patent publication US6358883B1, “Pesticidal and parasiticidal use of 1-aryl-1-(substituted thio, sulfinyl and sulfonyl)-2-nitroethane compounds” (American Cyanamid Company, priority 1998, dated 2002)
